In patent US7994164B2, “Mineralocorticoid receptor antagonists and methods of use” (Eli Lilly and Company, priority 2007, dated 2011):

Experiments:
[1] = target: T1, human MR (mineralocorticoid receptor) (Homo sapiens, UniProt P08235); assay: Steroid hormone nuclear receptor binding assay (MR binding); settings: HEK293 lysate overexpressing human MR, [3H]-aldosterone; individual values geometric mean of n=2
T1 construct: expressed in transfected cells; host or cells: HEK293 (lysate, '293-MR lysate')
T1 sequence (P08235 1-984): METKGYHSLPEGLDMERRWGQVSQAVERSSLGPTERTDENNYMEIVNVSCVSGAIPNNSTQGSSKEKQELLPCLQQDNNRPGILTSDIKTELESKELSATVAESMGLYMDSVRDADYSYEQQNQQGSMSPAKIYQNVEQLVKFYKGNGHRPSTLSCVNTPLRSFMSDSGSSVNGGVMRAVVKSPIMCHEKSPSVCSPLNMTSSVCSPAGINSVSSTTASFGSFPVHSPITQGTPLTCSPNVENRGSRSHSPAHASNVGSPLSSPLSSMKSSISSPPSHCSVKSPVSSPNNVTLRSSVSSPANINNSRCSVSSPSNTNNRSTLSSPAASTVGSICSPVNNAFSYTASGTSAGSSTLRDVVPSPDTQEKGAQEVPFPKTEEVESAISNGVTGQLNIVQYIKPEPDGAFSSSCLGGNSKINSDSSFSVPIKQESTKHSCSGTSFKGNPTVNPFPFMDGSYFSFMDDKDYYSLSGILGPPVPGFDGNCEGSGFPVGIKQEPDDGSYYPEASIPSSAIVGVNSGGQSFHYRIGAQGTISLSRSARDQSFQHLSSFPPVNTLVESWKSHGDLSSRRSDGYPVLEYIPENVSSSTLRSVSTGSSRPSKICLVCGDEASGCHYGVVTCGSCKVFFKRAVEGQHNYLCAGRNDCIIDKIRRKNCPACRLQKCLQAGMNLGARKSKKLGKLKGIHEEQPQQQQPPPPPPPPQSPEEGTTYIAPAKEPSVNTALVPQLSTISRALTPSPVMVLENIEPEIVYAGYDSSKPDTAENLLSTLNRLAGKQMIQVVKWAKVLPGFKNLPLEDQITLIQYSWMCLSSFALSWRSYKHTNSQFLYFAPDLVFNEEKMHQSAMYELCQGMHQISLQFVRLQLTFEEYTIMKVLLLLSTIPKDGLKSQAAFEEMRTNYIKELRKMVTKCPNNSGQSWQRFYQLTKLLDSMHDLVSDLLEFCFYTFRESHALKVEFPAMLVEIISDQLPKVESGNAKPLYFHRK
Description: Cell lysates from human embryonic kidney HEK293 cells overexpressing human MR (mineralocorticoid receptor), GR (glucocorticoid receptor), AR (androgen receptor), or PR (progesterone receptor) are used for receptor-ligand competition binding assays to determine Ki values.
Briefly, steroid receptor competition binding assays are run in a buffer containing 20 mM HEPES buffer (pH=7.6), 0.2 mM EDTA, 75 mM NaCl, 1.5 mM MgCl2, 20% glycerol, 20 mM sodium molybdate, 0.2 mM DTT (dithiothreitol), 20 μg/mL aprotinin and 20 μg/mL leupeptin (assay buffer). Typically, steroid receptor binding assays include radio-labeled ligands, such as 0.25 nM [^3H]-aldosterone for MR binding, 0.3 nM [^3H]-dexamethasone for GR binding, 0.36 nM [^3H]-methyltrienolone for AR binding, and 0.29 nM [^3H]-methyltrienolone for PR binding, and either 20 μg 293-MR lysate, 20 μg 293-GR lysate, 22 μg 293-AR lysate, or 40 μg 293-PR lysate per well. Assays are typically run in 96-well format. Competing test compounds are added at various concentrations ranging from about 0.01 nM to 10 μM. […] The binding reactions (140 μL) are incubated overnight at 4° C., then 70 μL of cold charcoal-dextran buffer (containing per 50 mL of assay buffer, 0.75 g of charcoal and 0.25 g of dextran) is added to each reaction. Plates are mixed for 8 minutes on an orbital shaker at 4° C. The plates are then centrifuged at 3,000 rpm at 4° C. for 10 minutes. An aliquot of 120 μL of the binding reaction mixture is then transferred to another 96-well plate and 175 μL of Wallac Optiphase Hisafe 3™ scintillation fluid is added to each well. Plates are sealed and shaken vigorously on an orbital shaker. After an incubation of 2 hours, plates are read in a Wallac Microbeta counter.
The Kd for [^3H]-aldosterone for MR binding, [^3H]-dexamethasone for GR binding, [^3H]-methyltrienolone for AR binding, or [^3H]-methyltrienolone for PR binding, is determined by saturation binding. The IC50 values for compounds are converted to Ki using the Cheng-Prusoff equation.

[2] = system: uni-nephrectomized Sprague Dawley rats; assay: In vivo model of aldosterone mediated renal disease; settings: 10 mg/kg/day x 14 days, oral gavage, aldosterone-infused rats; average of n=8
Description: Male uni-nephrectomized Sprague Dawley rats (240-280 g) are housed individually with ad lib house water and rodent 5001 diet for one week. After acclimation, baseline 24 h urine samples are collected and analyzed for total urine protein and creatinine. Animals are randomized via body weight and baseline urine protein into study groups. Baseline serum is taken by tail-clip and analyzed for blood urea nitrogen (BUN), creatinine, and electrolytes. After baseline samples are taken, all rats with the exception of the control group are maintained on a diet containing 6% salt, and drinking water containing 0.3% KCl throughout the study duration. […] Alza mini-pumps to deliver 2.5 μl/h×28 days of d-aldosterone in 0.01% DMSO at 0.75 μg/h, s.c. are implanted in non-control animals (e.g Test Compound group and Vehicle only group) under isoflourane anesthesia. […] Repeat urine samples are collected after 2 and 4 weeks of compound or vehicle alone administration and analyzed for total urine protein and creatinine. At study termination, pharmacokinetic samples are obtained at 8 timepoints (0.5, 1, 2, 3, 6, 8, 12 and 24 h). In addition, hearts and kidneys are removed and fixed in 10% buffered formalin for haematoxylin and eosin (H&E) and Masson's trichrome staining to detect structural damage in cardiac and renal tissues. Serum is taken by cardiac puncture at study termination for additional analysis of serum BUN, creatinine, and electrolytes.

human MR = target: T2, human MR (Homo sapiens, UniProt P08235); assay: hMR competitive antagonist assay (luciferase reporter, Schild analysis); format: cell-based
T2 construct: expressed in transfected cells; host or cells: HEK293, transient transfection with a CMV-driven plasmid and a GRE-TK-luciferase reporter
T2 sequence (P08235 1-984): T1 sequence (P08235 1-984)
Source text: Human embryonic kidney HEK293 cells are transfected with steroid hormone receptor and reporter gene plasmids using a suitable transfection reagent such as Fugene™. Briefly, the reporter plasmid containing two copies of probasin ARE and TK (thymidine kinase) promoter upstream of the luciferase reporter cDNA, is transfected into HEK293 cells with a plasmid constitutively expressing human androgen receptor (AR) using viral CMV (cytomegalovirus) promoter. The reporter plasmid containing two copies of GRE and TK promoter upstream of the luciferase reporter cDNA is transfected with a plasmid constitutively expressing either human glucocorticoid receptor (GR), human mineralocorticoid receptor (MR), or human progesterone receptor (PR) using viral CMV promoter. Cells are transfected in T150 cm flasks in DMEM media with 5% charcoal-stripped Fetal Bovine Serum (FBS). After an overnight incubation, transfected cells are trypsinized, plated in 96 well dishes in DMEM media containing 5% charcoal-stripped FBS, incubated for 4 hours and then exposed to various concentrations of test compounds ranging from about 0.01 nM to 10 μM. […] After 24 hours incubation with test compounds, cells are lysed and luciferase activity is determined using standard techniques.
Human embryonic kidney HEK293 cells are transfected with human MR using the same transfection reagents, plasmids, promoters, reporter constructs, buffers, and procedures as described above for the Nuclear Hormone Receptor Panel Screen.

Row | Ki [1] [nM] | Kb (human MR) [nM] | Compound | reduced urinary protein excretion compared to vehicle treated animals [2]
1 | ~0.79 | ~1.2 | C[C@H](CN1CCOCC1)n1/c(=N/C#N)[nH]c2cc(/C=C3\c4ccc(F)cc4COc4cc(F)ccc43)ccc21 [Example 1, (E)-N—((R)-5-((E)-3,8-Difluoro-6H-dibenzo[b,e]oxepin-11-ylidenemethyl)-1-(1-methyl-2-morpholin-4-yl-ethyl)-1,3-dihydro-benzoimidazol-2-ylidene)-cyanamide] | about 49 mg/day
2 | ~0.08 | ~1.1 | CN1CCN(n2/c(=N/C#N)[nH]c3cc(/C=C4\c5ccccc5COc5cc(F)ccc54)ccc32)CC1 [Example 8, (E)-N-(5-((E)-3-Fluoro-6H-dibenzo[b,e]oxepin-11-ylidenemethyl)-1-(4-methyl-piperazin-1-yl)-1,3-dihydro-benzoimidazol-2-ylidene)-cyanamide] | ~83 mg/day
3 | ~0.23 | ~2.5 | N#C/N=c1\[nH]c2cc(/C=C3/c4ccc(F)cc4OCc4c(F)cccc43)ccc2n1[C@H]1C[C@@H]2COCCN2C1 [Example 23, (E)-N-(5-((E)-3,7-Difluoro-6H-dibenzo[b,e]oxepin-11-ylidenemethyl)-1-((7S, 8aR)-hexahydro-pyrrolo[2,1-c][1,4]oxazin-7-yl)-1,3-dihydro-benzoimidazol-2-ylidene)-cyanamide] | ~64 mg/day
